Assays:
[1] = system: ALK tyrosine kinase receptor (Homo sapiens), Q9UM73 [L1196M]; settings: Compound concentration 1000.0 nM
[2] = target: 5'-AMP-activated protein kinase catalytic subunit alpha-2 (Homo sapiens) (UniProt P54646); settings: Compound concentration 1000.0 nM
[3] = target: Bone morphogenetic protein receptor type-2 (Homo sapiens) (UniProt Q13873); settings: Compound concentration 1000.0 nM
[4] = target: Calcium/calmodulin-dependent protein kinase type 1G (Homo sapiens) (UniProt Q96NX5); settings: Compound concentration 1000.0 nM
[5] = target: Cyclin-dependent kinase 13 (Homo sapiens) (UniProt Q14004); settings: Compound concentration 1000.0 nM
[6] = target: Casein kinase I isoform alpha-like (Homo sapiens) (UniProt Q8N752); settings: Compound concentration 1000.0 nM
[7] = target: Casein kinase I isoform gamma-1 (Homo sapiens) (UniProt Q9HCP0); settings: Compound concentration 1000.0 nM
[8] = target: Death-associated protein kinase 1 (Homo sapiens) (UniProt P53355); settings: Compound concentration 1000.0 nM
[9] = target: Mitogen-activated protein kinase kinase kinase 12 (Homo sapiens) (UniProt Q12852); settings: Compound concentration 1000.0 nM
[10] = target: Ephrin type-A receptor 1 (Homo sapiens) (UniProt P21709); settings: Compound concentration 1000.0 nM
[11] = target: G protein-coupled receptor kinase 4 (Homo sapiens) (UniProt P32298); settings: Compound concentration 1000.0 nM
[12] = target: Insulin-like growth factor 1 receptor (Homo sapiens) (UniProt P08069); settings: Compound concentration 1000.0 nM
[13] = target: Inhibitor of nuclear factor kappa-B kinase subunit beta (Homo sapiens) (UniProt O14920); settings: Compound concentration 1000.0 nM
[14] = target: Mitogen-activated protein kinase 10 (Homo sapiens) (UniProt P53779); settings: Compound concentration 1000.0 nM
[15] = target: Mitogen-activated protein kinase kinase kinase 4 (Homo sapiens) (UniProt Q9Y6R4); settings: Compound concentration 1000.0 nM
[16] = target: MAP kinase-activated protein kinase 2 (Homo sapiens) (UniProt P49137); settings: Compound concentration 1000.0 nM
[17] = target: Muscle, skeletal receptor tyrosine-protein kinase (Homo sapiens) (UniProt O15146); settings: Compound concentration 1000.0 nM
[18] = target: Myosin light chain kinase, smooth muscle (Homo sapiens) (UniProt Q15746); settings: Compound concentration 1000.0 nM
[19] = target: Myosin light chain kinase family member 4 (Homo sapiens) (UniProt Q86YV6); settings: Compound concentration 1000.0 nM
[20] = target: Serine/threonine-protein kinase NIM1 (Homo sapiens) (UniProt Q8IY84); settings: Compound concentration 1000.0 nM
[21] = target: Phosphorylase b kinase gamma catalytic chain, skeletal muscle/heart isoform (Homo sapiens) (UniProt Q16816); settings: Compound concentration 1000.0 nM
[22] = system: Phosphatidylinositol 4,5-bisphosphate 3-kinase catalytic subunit alpha isoform (Homo sapiens), P42336 [H1047Y]; settings: Compound concentration 1000.0 nM
[23] = target: Phosphatidylinositol 4,5-bisphosphate 3-kinase catalytic subunit gamma isoform (Homo sapiens) (UniProt P48736); settings: Compound concentration 1000.0 nM
[24] = target: Serine/threonine-protein kinase pim-1 (Homo sapiens) (UniProt P11309); settings: Compound concentration 1000.0 nM
[25] = target: Phosphatidylinositol 4-phosphate 5-kinase type-1 alpha (Homo sapiens) (UniProt Q99755); settings: Compound concentration 1000.0 nM
[26] = target: Phosphatidylinositol 5-phosphate 4-kinase type-2 gamma (Homo sapiens) (UniProt Q8TBX8); settings: Compound concentration 1000.0 nM
[27] = target: cAMP-dependent protein kinase catalytic subunit beta (Homo sapiens) (UniProt P22694); settings: Compound concentration 1000.0 nM
[28] = target: Serine/threonine-protein kinase PLK1 (Homo sapiens) (UniProt P53350); settings: Compound concentration 1000.0 nM
[29] = target: Protein kinase C eta type (Homo sapiens) (UniProt P24723); settings: Compound concentration 1000.0 nM
[30] = target: Protein kinase C theta type (Homo sapiens) (UniProt Q04759); settings: Compound concentration 1000.0 nM
[31] = system: Proto-oncogene tyrosine-protein kinase receptor Ret (Homo sapiens), P07949 [M918T]; settings: Compound concentration 1000.0 nM
[32] = system: Proto-oncogene tyrosine-protein kinase receptor Ret (Homo sapiens), P07949 [V804L]; settings: Compound concentration 1000.0 nM
[33] = system: Proto-oncogene tyrosine-protein kinase receptor Ret (Homo sapiens), P07949 [V804M]; settings: Compound concentration 1000.0 nM
[34] = target: Dual serine/threonine and tyrosine protein kinase (Homo sapiens) (UniProt Q6XUX3); settings: Compound concentration 1000.0 nM
[35] = target: Ribosomal protein S6 kinase alpha-4 (Homo sapiens) (UniProt O75676); settings: Compound concentration 1000.0 nM
[36] = target: Ribosomal protein S6 kinase alpha-6 (Homo sapiens) (UniProt Q9UK32); settings: Compound concentration 1000.0 nM
[37] = target: Ribosomal protein S6 kinase alpha-6 (Homo sapiens) (UniProt Q9UK32); settings: Compound concentration 1000.0 nM; remark: listed apart in the source
[38] = target: SRSF protein kinase 2 (Homo sapiens) (UniProt P78362); settings: Compound concentration 1000.0 nM
[39] = target: STE20/SPS1-related proline-alanine-rich protein kinase (Homo sapiens) (UniProt Q9UEW8); settings: Compound concentration 1000.0 nM
[40] = target: TGF-beta receptor type-1 (Homo sapiens) (UniProt P36897); settings: Compound concentration 1000.0 nM
[41] = target: Transient receptor potential cation channel subfamily M member 6 (Homo sapiens) (UniProt Q9BX84); settings: Compound concentration 1000.0 nM
[42] = target: Serine/threonine-protein kinase 32A (Homo sapiens) (UniProt Q8WU08); settings: Compound concentration 1000.0 nM
[43] = target: Tyrosine-protein kinase ZAP-70 (Homo sapiens) (UniProt P43403); settings: Compound concentration 1000.0 nM
[44] = target: 5-hydroxytryptamine receptor 7 (Homo sapiens) (UniProt P34969); settings: Compound concentration 10.0 uM
[45] = target: Beta-2 adrenergic receptor (Homo sapiens) (UniProt P07550); settings: Compound concentration 10.0 uM

Ribosomal protein S6 kinase alpha-6 (Homo sapiens), sequence (Q9UK32 whole entry): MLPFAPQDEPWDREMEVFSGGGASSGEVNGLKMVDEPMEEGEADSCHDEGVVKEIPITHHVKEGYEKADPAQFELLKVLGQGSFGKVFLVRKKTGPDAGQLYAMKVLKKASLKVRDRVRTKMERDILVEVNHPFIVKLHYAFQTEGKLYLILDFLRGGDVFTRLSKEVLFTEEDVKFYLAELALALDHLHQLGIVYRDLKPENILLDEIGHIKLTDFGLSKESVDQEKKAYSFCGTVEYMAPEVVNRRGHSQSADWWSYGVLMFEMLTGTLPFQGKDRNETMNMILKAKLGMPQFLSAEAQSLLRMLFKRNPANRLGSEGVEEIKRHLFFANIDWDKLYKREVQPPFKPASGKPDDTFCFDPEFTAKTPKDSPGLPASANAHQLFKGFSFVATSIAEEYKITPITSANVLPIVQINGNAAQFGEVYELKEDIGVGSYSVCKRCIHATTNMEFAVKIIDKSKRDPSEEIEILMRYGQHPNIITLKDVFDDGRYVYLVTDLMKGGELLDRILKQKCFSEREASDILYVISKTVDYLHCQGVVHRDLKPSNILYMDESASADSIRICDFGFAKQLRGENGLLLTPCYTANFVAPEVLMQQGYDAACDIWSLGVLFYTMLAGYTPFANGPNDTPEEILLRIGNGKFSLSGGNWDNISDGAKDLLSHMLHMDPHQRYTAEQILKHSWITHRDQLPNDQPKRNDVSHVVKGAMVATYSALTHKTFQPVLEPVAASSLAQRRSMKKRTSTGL
SRSF protein kinase 2 (Homo sapiens), sequence (P78362 whole entry, looked up): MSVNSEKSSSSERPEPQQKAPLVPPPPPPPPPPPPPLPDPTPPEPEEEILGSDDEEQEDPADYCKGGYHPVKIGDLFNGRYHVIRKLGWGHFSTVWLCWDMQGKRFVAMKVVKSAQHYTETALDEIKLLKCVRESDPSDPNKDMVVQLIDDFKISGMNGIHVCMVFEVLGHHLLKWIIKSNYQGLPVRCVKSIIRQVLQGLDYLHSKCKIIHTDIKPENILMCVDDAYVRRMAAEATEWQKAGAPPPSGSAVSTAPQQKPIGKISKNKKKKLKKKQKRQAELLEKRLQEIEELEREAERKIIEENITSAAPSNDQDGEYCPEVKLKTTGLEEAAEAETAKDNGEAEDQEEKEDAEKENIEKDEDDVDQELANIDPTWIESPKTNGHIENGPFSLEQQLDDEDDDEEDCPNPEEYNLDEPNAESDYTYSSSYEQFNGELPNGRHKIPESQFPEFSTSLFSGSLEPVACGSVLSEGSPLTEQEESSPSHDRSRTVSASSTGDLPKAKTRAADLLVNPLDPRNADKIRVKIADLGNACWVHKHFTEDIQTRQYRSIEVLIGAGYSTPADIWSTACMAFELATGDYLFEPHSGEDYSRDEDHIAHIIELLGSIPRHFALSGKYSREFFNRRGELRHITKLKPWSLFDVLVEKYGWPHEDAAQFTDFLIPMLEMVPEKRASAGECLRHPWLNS
Protein kinase C theta type (Homo sapiens), sequence (Q04759 whole entry, looked up): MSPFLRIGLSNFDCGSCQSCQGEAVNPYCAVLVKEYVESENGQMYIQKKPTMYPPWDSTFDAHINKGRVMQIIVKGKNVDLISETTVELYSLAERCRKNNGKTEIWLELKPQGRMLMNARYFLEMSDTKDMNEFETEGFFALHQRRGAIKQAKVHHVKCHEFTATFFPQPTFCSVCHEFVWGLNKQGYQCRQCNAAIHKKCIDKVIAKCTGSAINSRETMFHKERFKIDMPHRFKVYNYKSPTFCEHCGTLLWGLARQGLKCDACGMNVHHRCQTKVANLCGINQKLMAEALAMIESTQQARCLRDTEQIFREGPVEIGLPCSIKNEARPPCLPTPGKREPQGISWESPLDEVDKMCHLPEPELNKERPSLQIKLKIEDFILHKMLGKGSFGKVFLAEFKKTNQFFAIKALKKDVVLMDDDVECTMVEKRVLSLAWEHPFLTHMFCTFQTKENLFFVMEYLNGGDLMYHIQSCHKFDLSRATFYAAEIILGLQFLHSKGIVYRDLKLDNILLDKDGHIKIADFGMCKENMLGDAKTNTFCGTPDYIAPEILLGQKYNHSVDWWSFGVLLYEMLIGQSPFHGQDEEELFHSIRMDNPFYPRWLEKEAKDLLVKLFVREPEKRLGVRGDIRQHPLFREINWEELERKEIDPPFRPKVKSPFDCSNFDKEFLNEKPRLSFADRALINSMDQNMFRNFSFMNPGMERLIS
Dual serine/threonine and tyrosine protein kinase (Homo sapiens), sequence (Q6XUX3 whole entry): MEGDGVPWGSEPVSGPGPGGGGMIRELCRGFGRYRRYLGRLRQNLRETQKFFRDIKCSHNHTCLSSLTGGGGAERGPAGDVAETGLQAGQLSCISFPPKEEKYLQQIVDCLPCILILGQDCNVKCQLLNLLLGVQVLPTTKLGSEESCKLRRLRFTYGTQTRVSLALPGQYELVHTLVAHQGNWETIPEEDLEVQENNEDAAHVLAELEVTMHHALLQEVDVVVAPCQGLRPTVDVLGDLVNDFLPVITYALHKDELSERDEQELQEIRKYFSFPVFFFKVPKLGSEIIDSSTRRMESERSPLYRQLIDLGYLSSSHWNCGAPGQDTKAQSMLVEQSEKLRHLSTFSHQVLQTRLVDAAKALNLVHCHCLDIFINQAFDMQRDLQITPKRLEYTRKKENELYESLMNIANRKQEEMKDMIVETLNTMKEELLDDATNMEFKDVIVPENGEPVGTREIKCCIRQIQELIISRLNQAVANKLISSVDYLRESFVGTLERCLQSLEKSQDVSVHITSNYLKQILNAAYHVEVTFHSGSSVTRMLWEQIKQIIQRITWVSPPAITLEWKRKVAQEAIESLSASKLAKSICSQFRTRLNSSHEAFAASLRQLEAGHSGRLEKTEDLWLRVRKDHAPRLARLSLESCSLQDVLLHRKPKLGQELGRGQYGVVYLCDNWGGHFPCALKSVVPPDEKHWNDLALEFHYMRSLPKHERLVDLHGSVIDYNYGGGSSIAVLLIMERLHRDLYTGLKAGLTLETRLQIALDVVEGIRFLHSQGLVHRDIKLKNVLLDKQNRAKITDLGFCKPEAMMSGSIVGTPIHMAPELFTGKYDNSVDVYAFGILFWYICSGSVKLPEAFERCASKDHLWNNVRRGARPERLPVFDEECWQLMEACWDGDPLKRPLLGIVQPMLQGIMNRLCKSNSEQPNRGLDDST
MAP kinase-activated protein kinase 2 (Homo sapiens), sequence (P49137 whole entry, looked up): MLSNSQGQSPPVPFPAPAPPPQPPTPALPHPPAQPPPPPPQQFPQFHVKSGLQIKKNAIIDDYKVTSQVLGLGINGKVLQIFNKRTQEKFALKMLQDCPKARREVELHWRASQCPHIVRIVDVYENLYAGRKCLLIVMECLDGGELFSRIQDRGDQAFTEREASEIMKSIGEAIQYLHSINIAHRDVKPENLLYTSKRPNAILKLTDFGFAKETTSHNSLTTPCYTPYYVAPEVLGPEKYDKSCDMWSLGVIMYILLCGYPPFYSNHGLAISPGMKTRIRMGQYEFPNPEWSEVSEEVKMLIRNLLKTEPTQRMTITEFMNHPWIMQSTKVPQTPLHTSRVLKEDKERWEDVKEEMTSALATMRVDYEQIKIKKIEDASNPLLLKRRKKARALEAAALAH
ALK tyrosine kinase receptor (Homo sapiens), Q9UM73 [L1196M], sequence (Q9UM73 whole entry L1196M, looked up): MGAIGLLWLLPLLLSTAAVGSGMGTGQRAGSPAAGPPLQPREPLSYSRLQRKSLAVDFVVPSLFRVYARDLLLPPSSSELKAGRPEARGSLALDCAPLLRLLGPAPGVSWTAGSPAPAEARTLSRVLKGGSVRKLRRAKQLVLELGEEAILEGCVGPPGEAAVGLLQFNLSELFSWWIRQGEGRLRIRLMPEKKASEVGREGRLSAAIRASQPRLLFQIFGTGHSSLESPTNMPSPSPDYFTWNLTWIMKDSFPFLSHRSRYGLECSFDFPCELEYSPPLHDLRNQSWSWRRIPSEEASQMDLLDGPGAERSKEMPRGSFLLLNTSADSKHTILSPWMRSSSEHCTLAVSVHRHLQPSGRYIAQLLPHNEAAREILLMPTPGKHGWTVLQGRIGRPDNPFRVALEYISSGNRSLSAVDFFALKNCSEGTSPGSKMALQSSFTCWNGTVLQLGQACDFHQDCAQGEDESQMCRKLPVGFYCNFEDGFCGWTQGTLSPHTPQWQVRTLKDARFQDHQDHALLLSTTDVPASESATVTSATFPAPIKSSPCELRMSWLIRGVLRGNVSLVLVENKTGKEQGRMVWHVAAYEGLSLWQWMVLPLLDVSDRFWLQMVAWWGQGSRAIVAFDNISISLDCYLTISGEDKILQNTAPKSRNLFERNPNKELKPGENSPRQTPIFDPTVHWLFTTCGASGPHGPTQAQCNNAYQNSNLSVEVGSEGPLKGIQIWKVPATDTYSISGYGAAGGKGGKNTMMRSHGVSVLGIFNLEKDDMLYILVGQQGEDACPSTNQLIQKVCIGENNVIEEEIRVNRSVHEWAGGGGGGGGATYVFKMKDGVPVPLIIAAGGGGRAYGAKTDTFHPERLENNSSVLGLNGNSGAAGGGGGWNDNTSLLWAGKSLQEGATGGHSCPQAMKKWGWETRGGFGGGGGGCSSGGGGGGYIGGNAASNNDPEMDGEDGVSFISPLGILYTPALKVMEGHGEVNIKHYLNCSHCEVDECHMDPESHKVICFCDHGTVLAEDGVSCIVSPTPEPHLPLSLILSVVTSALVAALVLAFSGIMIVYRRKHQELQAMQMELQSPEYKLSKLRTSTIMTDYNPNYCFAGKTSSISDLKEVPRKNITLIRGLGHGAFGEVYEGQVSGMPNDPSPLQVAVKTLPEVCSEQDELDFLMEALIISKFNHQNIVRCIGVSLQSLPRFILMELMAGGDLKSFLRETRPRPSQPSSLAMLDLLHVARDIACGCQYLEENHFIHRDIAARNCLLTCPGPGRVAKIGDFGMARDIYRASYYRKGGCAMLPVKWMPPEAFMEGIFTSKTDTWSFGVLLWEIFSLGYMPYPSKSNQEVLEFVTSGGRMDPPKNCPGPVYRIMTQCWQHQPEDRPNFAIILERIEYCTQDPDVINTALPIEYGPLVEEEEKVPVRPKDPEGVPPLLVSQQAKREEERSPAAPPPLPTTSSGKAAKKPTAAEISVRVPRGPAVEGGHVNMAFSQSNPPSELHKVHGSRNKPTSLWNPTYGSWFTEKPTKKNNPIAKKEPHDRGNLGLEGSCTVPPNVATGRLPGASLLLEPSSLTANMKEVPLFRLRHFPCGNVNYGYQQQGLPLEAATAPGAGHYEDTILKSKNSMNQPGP

Cc1c(C(=O)O)cc(-c2ccc(C3CCNCC3)cc2)c2ccc(-c3ccc(C(F)(F)F)cc3)cc12 [PPTN-NC]
inactive: residual activity [1] 100% | residual activity [2] 100% | residual activity [3] 100% | residual activity [4] 100% | residual activity [5] 100% | residual activity [6] 100% | residual activity [7] 100% | residual activity [8] 100% | residual activity [9] 100% | residual activity [10] 83% | residual activity [11] 100% | residual activity [12] 90% | residual activity [13] 100% | residual activity [14] 100% | residual activity [15] 100% | residual activity [16] 88% | residual activity [17] 100% | residual activity [18] 82% | residual activity [19] 100% | residual activity [20] 92% | residual activity [21] 100% | residual activity [22] 100% | residual activity [23] 100% | residual activity [24] 100% | residual activity [25] 70% | residual activity [26] 100% | residual activity [27] 84% | residual activity [28] 94% | residual activity [29] 100% | residual activity [30] 100% | residual activity [31] 100% | residual activity [32] 100% | residual activity [33] 98% | residual activity [34] 100% | residual activity [35] 88% | residual activity [36] 100% | residual activity [37] 100% | residual activity [38] 82% | residual activity [39] 100% | residual activity [40] 89% | residual activity [41] 100% | residual activity [42] 89% | residual activity [43] 100% | inhibition [44] -3.66% | inhibition [45] 27.8%

O=C(O)c1cc(-c2ccc(C3CCNCC3)cc2)c2ccc(-c3ccc(C(F)(F)F)cc3)cc2c1 [PPTN]
inactive: residual activity [1] 100% | residual activity [2] 100% | residual activity [3] 100% | residual activity [4] 100% | residual activity [5] 100% | residual activity [6] 100% | residual activity [7] 100% | residual activity [8] 100% | residual activity [9] 100% | residual activity [10] 100% | residual activity [11] 72% | residual activity [12] 95% | residual activity [13] 100% | residual activity [14] 100% | residual activity [15] 100% | residual activity [16] 51% | residual activity [17] 90% | residual activity [18] 85% | residual activity [19] 94% | residual activity [20] 94% | residual activity [21] 100% | residual activity [22] 84% | residual activity [23] 92% | residual activity [24] 100% | residual activity [25] 78% | residual activity [26] 100% | residual activity [27] 100% | residual activity [28] 88% | residual activity [29] 100% | residual activity [30] 100% | residual activity [31] 92% | residual activity [32] 88% | residual activity [33] 100% | residual activity [34] 100% | residual activity [35] 100% | residual activity [36] 100% | residual activity [37] 100% | residual activity [38] 100% | residual activity [39] 100% | residual activity [40] 81% | residual activity [41] 100% | residual activity [42] 100% | residual activity [43] 100% | inhibition [44] 17.8% | inhibition [45] 38.9%

Source: ChEMBL document CHEMBL4507292 (2021)
